Values belong to the substance of their own block, whether it stands above or below them.
Target: T1, MyD88^TIR (Homo sapiens, UniProt Q99836)
T1 construct: MyD88 (residues 148–296); 6xHis; made in house; host or cells: E. coli BL21 (DE3)
Assay: T‐Surf phage library (P8 and P3) selection against MyD88^TIR, four rounds, NGS read counts
Type: binding
Details: for Population: 4th round of selection against MyD88 TIR, share of NGS reads; for P8_MyD88 Rank (after) / P8_MyD88 Rank (before): P8 library; for P3_MyD88 Rank (after) / P3_MyD88 Rank (before): P3 library
How it was run: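 Library of 190 946 TIR‐derived peptides on P8 or P3 was panned on immobilized TIR domain coated at 5 µg mL^−1, BSA‐blocked, 1 h binding at RT, PBS/0.5% Tween‐20 washes, HCl elution, TG1 amplification. Fourth‐round pools were PCR‐barcoded, sequenced (100 bp paired‐end, Phred ≥30), and peptides ranked by read counts.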

[1] = P3_MyD88 pool: P3 T-Surf phage library
[2] = 4R selection against MyD88, rank after grouping
[3] = 4R selection against MyD88, rank before grouping
[4] = selection against MyD88, rank after grouping
[5] = selection against MyD88, rank before grouping
[6] = P8_MyD88: rank by NGS read count after grouping
[7] = P8_MyD88: rank by NGS read count before grouping
[8] = P3_MyD88: rank by count after grouping
[9] = P3_MyD88: rank by count before grouping
[10] = selection against MyD88, rank by count after grouping
[11] = selection against MyD88, rank by count before grouping
[12] = P8_MyD88: rank by count after grouping
[13] = P8_MyD88: rank by count before grouping
[14] = P8_MyD88 pool: P8 T-Surf phage library
[15] = selection against MyD88 TIR, rank by count after grouping
[16] = selection against MyD88 TIR, rank by count before grouping

T1 sequence (Q99836 148-296): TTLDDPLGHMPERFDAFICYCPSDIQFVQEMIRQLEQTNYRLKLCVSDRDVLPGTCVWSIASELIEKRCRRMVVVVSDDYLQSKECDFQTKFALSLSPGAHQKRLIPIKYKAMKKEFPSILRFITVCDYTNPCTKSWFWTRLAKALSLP

Substance: AVAHEISKKMKIFATI
Population [1]: 0.00262%

Substance: DPQDLDWFYERLISRILQ
P8_MyD88 Rank (after) [4]: 549
P8_MyD88 Rank (before) [5]: 2787

Substance: LGYHWMEWEYVVGIED
Rank (after) [6]: 960
Rank (before) [7]: 3299

Substance: EWIREQRRSALKERLP
P3_MyD88 Rank (after) [2]: 639
P3_MyD88 Rank (before) [3]: 2171

Substance: IDDDHLTYLVRLLQIA
P8_MyD88 Rank (after) [10]: 761
P8_MyD88 Rank (before) [11]: 3637

Substance: YITWFDDIQQIQVFWV
Rank (after) [6]: 978
Rank (before) [7]: 2116

Substance: WDFASSSWALDELLRILY
P8_MyD88 Rank (after) [4]: 550
P8_MyD88 Rank (before) [5]: 1585

Substance: SWAVDELLKILQAWDE
Rank (after) [12]: 137
Rank (before) [13]: 151
Population [14]: 0.0108%

Substance: DPQDLDWFYERLVAC
Rank (after) [6]: 1005
Rank (before) [7]: 2779

Substance: HLRKEFDKRLITSFKD
Rank (after) [8]: 387
Rank (before) [9]: 2800

Substance: VDPTHIRNQTGRYEKA
P3_MyD88 Rank (after) [2]: 642
P3_MyD88 Rank (before) [3]: 1768

Substance: YAASPWWFDELVKTVR
Rank (after) [12]: 418
Rank (before) [13]: 1762

Substance: WFLEPLEKILQAHGTT
P8_MyD88 Rank (after) [2]: 600
P8_MyD88 Rank (before) [3]: 1360

Substance: LGYHWVDWEDLLSIEE
P8_MyD88 Rank (after) [10]: 730
P8_MyD88 Rank (before) [11]: 3235

Substance: SSFREGLWRLL*LSKK
Population [1]: 0.00291%

Substance: YASYDDNYYYWVTHVLLRRL
Rank (after) [6]: 969
Rank (before) [7]: 1775

Substance: WRWMNCCRFCMRVNC
P8_MyD88 Rank (after) [10]: 729
P8_MyD88 Rank (before) [11]: 1649

Substance: WALDELLQILQARELS
P8_MyD88 Rank (after) [10]: 721
P8_MyD88 Rank (before) [11]: 1462

Substance: NELVKVWSSKANRLVG
Rank (after) [8]: 393
Rank (before) [9]: 3447

Substance: SLRKNVVSNLLEEFKR
P3_MyD88 Rank (after) [4]: 524
P3_MyD88 Rank (before) [5]: 3079

Substance: DPQDREWCYERLVSLL
P8_MyD88 Rank (after) [4]: 516
P8_MyD88 Rank (before) [5]: 2958

Substance: YLRLEVIWFWENRRYA
P8_MyD88 Rank (after) [4]: 491
P8_MyD88 Rank (before) [5]: 2075

Substance: YELDFSHFWLFVGQAP
Rank (after) [6]: 1008
Rank (before) [7]: 1929

Substance: DPQELDGFYERLVSLF
Rank (after) [12]: 401
Rank (before) [13]: 3015

Substance: QEVEGWRDALTKVASM
P3_MyD88 Rank (after) [15]: 226
P3_MyD88 Rank (before) [16]: 2893

Substance: YASYDDNDYYWVTHVLLRHM
Population [14]: 0.00732%

Substance: YAASPWWFDELVHILW
P8_MyD88 Rank (after) [10]: 678
P8_MyD88 Rank (before) [11]: 1722

Substance: FLSYRALEKRFGRLA
P3_MyD88 Rank (after) [2]: 625
P3_MyD88 Rank (before) [3]: 1351

The remaining lines, values ahead:

P8_MyD88 Rank (after) [2]: 639
P8_MyD88 Rank (before) [3]: 3622
Substance: IDDDHLYAALVQAGIL

Rank (after) [6]: 925
Rank (before) [7]: 2010
Substance: YLLLSVLHTRSARGYV

Rank (after) [8]: 479
Rank (before) [9]: 1631
Substance: YTALTNRGFHTFLDND

P3_MyD88 Rank (after) [2]: 675
P3_MyD88 Rank (before) [3]: 3507
Substance: NQWRNALTAAANLSLS

P3_MyD88 Rank (after) [10]: 727
P3_MyD88 Rank (before) [11]: 2193
Substance: EAFAVHVWSSKANSLVG

Rank (after) [12]: 124
Rank (before) [13]: 131
Population [14]: 0.0135%
Substance: YASSTWALDELLQIFE

P3_MyD88 Rank (after) [2]: 638
P3_MyD88 Rank (before) [3]: 2265
Substance: LVSHEISKKVKIFATI

Rank (after) [12]: 96
Rank (before) [13]: 102
Population [14]: 0.0227%
Substance: PQDLEWFYERLFSQM

Population [14]: 0.0108%
Substance: WALNELLKILYANETM

Rank (after) [12]: 159
Rank (before) [13]: 171
Population [14]: 0.00809%
Substance: DYTSSPWALEELLKIM

Rank (after) [12]: 107
Rank (before) [13]: 113
Population [14]: 0.02%
Substance: GTFIDYLYHRLMEEGI

P8_MyD88 Rank (after) [15]: 242
P8_MyD88 Rank (before) [16]: 3250
Substance: LGYHWIDWAYFVGIEE

Rank (after) [12]: 414
Rank (before) [13]: 1546
Substance: WALNELLKILHARELF

P3_MyD88 Rank (after) [2]: 667
P3_MyD88 Rank (before) [3]: 3223
Substance: SSFREALWRLIELSTK

Rank (after) [12]: 115
Rank (before) [13]: 123
Population [14]: 0.0173%
Substance: WALNELLEILKAREDI

P8_MyD88 Rank (after) [15]: 264
P8_MyD88 Rank (before) [16]: 550
Substance: DWVWDYLLPNLEGQR

P8_MyD88 Rank (after) [15]: 198
P8_MyD88 Rank (before) [16]: 294
Substance: SSTWALDELERILEYM

P8_MyD88 Rank (after) [2]: 583
P8_MyD88 Rank (before) [3]: 3423
Substance: PQDLAWYYVRLVSLIL

P3_MyD88 Rank (after) [15]: 194
P3_MyD88 Rank (before) [16]: 2773
Substance: HLLKEFYKKQITAFKD

Rank (after) [6]: 970
Rank (before) [7]: 3074
Substance: DSFFWGRLLYSLHVTE

Rank (after) [6]: 937
Rank (before) [7]: 3319
Substance: LGYQLIDWEYFVGIEN
